# Patent US20240109873A1, “ANTAGONISTS OF THE MUSCARINIC ACETYLCHOLINE RECEPTOR M4” (Vanderbilt University, priority 2020, published 2024)
# Target: T1, human mAChR M4 (Homo sapiens, UniProt P08173)
# T1 construct: expressed in transfected cells; host or cells: CHO-K1 (ATCC), co-transfected with chimeric G protein Gqi5
# T1 sequence (P08173 1-479): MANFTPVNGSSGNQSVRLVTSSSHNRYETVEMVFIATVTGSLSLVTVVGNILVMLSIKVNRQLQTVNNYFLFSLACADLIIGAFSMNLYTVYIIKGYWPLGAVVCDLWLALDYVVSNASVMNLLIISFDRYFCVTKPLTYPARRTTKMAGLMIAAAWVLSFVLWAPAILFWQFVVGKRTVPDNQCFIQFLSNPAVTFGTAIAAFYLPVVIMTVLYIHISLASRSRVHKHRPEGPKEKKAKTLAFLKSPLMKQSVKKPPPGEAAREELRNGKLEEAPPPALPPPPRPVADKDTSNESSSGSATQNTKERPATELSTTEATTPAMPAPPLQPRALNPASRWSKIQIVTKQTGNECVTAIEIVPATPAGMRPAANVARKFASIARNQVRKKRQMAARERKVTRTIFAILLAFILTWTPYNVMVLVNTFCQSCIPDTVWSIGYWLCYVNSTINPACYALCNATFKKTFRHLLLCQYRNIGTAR
# Experiment: mAChR M4 cell-based functional assay (calcium flux, antagonism of EC80 acetylcholine response, M4/Gqi5/CHO-K1 cells)
# Settings: for remaining activity at 30 µM: CHO-K1, % ACh maximum at 30 μM, read-out: Human M4 Emin; for IC50: decrease of the response elicited by an EC80 concentration of acetylcholine, CHO-K1 cells, Gqi5
# Experimental: Human or rat M4 cDNA, along with the chimeric G protein Gqi5, were transfected into Chinese hamster ovary (CHO-K1) cells purchased from the American Type Culture Collection using Lipofectamine2000. M4/Gqi5/CHO cells were grown in Ham's F-12 medium containing 10% heat-inactivated fetal bovine serum (FBS), 20 mM HEPES, 500 μg/mL G418 sulfate, and 200 μg/mL Hygromycin B.
# For high throughput measurement of agonist-evoked increases in intracellular calcium, CHO-K1 cells stably expressing muscarinic receptors were plated in growth medium lacking G418 and hygromycin at 15,000 cells/20 μL/well in Greiner 384-well black-walled, tissue culture (TC)-treated, clear-bottom plates (VWR). Cells were incubated overnight at 37° C. and 5% CO2. The next day, cells were washed using an ELX 405 (BioTek) with assay buffer; the final volume was then aspirated to 20 μL. Next, 20 μL of a 2.3 μM stock of Fluo-4/acetoxymethyl ester (Invitrogen, Carlsbad, CA), prepared as a 2.3 mM stock in DMSO and mixed in a 1:1 ratio with 10% (w/v) Pluronic F-127 and diluted in assay buffer, was added to the wells and the cell plates were incubated for 50 min at 37° C. and 5% CO2. Dye was removed by washing with the ELX 405 and the final volume was aspirated to 20 μL. Compound master plates were formatted in a 10-point concentration-response curve (CRC) format (1:3 dilutions) in 100% DMSO with a starting concentration of 10 or 1 mM using a BRAVO liquid handler (Agilent). Test compound CRCs were then transferred to daughter plates (240 nL) using the Echo acoustic plate reformatter (Labcyte, Sunnyvale, CA) and then diluted into assay buffer (40 μL) to a 2× stock using a Thermo Fisher Combi (Thermo Fisher Scientific, Waltham, MA).
# Calcium flux was measured using the Functional Drug Screening System (FDSS) 6000 or 7000 (Hamamatsu Corporation, Tokyo, Japan) as an increase in the fluorescent static ratio. Compounds were applied to cells (20 μL, 2×) using the automated system of the FDSS at 2 seconds into the protocol and the data were collected at 1 Hz. At 143 s, 10 μL of an EC20 concentration of the muscarinic receptor agonist acetylcholine was added (5×), followed by the addition of 12 μL of an EC80 concentration of acetylcholine at the 268 s time point (5×). Agonist activity was analyzed as a concentration-dependent increase in calcium mobilization upon compound addition. Positive allosteric modulator activity was analyzed as a concentration-dependent increase in the EC20 acetylcholine response. Antagonist activity was analyzed as a concentration-dependent decrease in the EC80 acetylcholine response; for the purposes of the tables herein, an IC50 (inhibitory concentration 50) was calculated as a concentration-dependent decrease of the response elicited by an EC80 concentration of acetylcholine. Concentration-response curves were generated using a four-parameter logistical equation in XLFit curve fitting software (IDBS, Bridgewater, NJ) for Excel (Microsoft, Redmond, WA) or Prism (GraphPad Software, Inc., San Diego, CA) or the Dotmatics software platform (Dotmatics, Bishop's Stortford, UK). […]
# Compounds were synthesized as described above. Activity (IC50 and Emin) was determined in the mAChR M4 cell-based functional assay as described above and the data are shown in Table 2.
Compound,remaining activity at 30 µM [%],IC50 [nM],Human M4 Emin (% ACh maximum at 30 μM) [%]
"[2H]C1([2H])CC(C([2H])([2H])N2C[C@H]3C[C@H](Nc4nnc(-c5cnccc5C(F)(F)F)cc4OC)C[C@H]3C2)CC([2H])([2H])O1 [Compound 22, (3aR,5s,6aS)-N-(4-methoxy-6-(4-(trifluoromethyl)pyridin-3-yl)pyridazin-3-yl)-2-((tetrahydro-2H-pyran-4-yl-2,2,6,6-d4)methyl-d2)octahydrocyclopenta[c]pyrrol-5-amine]",2,4.5,
"[2H]C1([2H])CC(CN2C[C@H]3C[C@H](Nc4nnc(-c5cnccc5C(F)(F)F)cc4OC)C[C@H]3C2)CC([2H])([2H])O1 [Compound 23, (3aR,5s,6aS)-N-(4-methoxy-6-(4-(trifluoromethyl)pyridin-3-yl)pyridazin-3-yl)-2-((tetrahydro-2H-pyran-4-yl-2,2,6,6-d4)methyl)octahydrocyclopenta[c]pyrrol-5-amine]",2,3.9,
"[2H]C([2H])([C@@H]1CCCOC1)N1C[C@H]2C[C@H](Nc3ccc(-c4cnccc4C(F)(F)F)nn3)C[C@H]2C1 [Compound 24, (3aR,5s,6aS)-2-(((S)-tetrahydro-2H-pyran-3-yl)methyl-d2)-N-(6-(4-(trifluoromethyl)pyridin-3-yl)pyridazin-3-yl)octahydrocyclopenta[c]pyrrol-5-amine]",3,5.5,
"[2H]C([2H])([C@H]1CCCOC1)N1C[C@H]2C[C@H](Nc3ccc(-c4cnccc4C(F)(F)F)nn3)C[C@H]2C1 [Compound 25, (3aR,5s,6aS)-2-(((R)-tetrahydro-2H-pyran-3-yl)methyl-d2)-N-(6-(4-(trifluoromethyl)pyridin-3-yl)pyridazin-3-yl)octahydrocyclopenta[c]pyrrol-5-amine]",6,35,
"[2H]C([2H])(C1CCOCC1)N1C[C@H]2C[C@H](Nc3nnc(-c4cnccc4C(F)(F)F)cc3C(F)F)C[C@H]2C1 [Compound 26, (3aR,5s,6aS)-N-(4-(difluoromethyl)-6-(4-(trifluoromethyl)pyridin-3-yl)pyridazin-3-yl)-2-((tetrahydro-2H-pyran-4-yl)methyl-d2)octahydrocyclopenta[c]pyrrol-5-amine]",6,1.3,
"[2H]C([2H])(C1CCCOCC1)N1C[C@H]2C[C@H](Nc3ccc(-c4cnccc4C(F)(F)F)nn3)C[C@H]2C1 (stereo partly drawn) [Compound 28, (3aR,5s,6aS)-2-(oxepan-4-ylmethyl-d2)-N-(6-(4-(trifluoromethyl)pyridin-3-yl)pyridazin-3-yl)octahydrocyclopenta[c]pyrrol-5-amine]",4,2.7,
"[2H]C([2H])(CC1CCOCC1)N1C[C@H]2C[C@H](Nc3ccc(-c4cnccc4C(F)(F)F)nn3)C[C@H]2C1 [Compound 31, (3aR,5s,6aS)-2-(2-(tetrahydro-2H-pyran-4-yl)ethyl-1,1-d2)-N-(6-(4-(trifluoromethyl)pyridin-3-yl)pyridazin-3-yl)octahydrocyclopenta[c]pyrrol-5-amine]",5,0.8,
"[2H]C([2H])(C1CC(C)(C)OC(C)(C)C1)N1C[C@H]2C[C@H](Nc3ccc(-c4cnccc4C(F)(F)F)nn3)C[C@H]2C1 [Compound 32, (3aR,5s,6aS)-2-((2,2,6,6-tetramethyltetrahydro-2H-pyran-4-yl)methyl-d2)-N-(6-(4-(trifluoromethyl)pyridin-3-yl)pyridazin-3-yl)octahydrocyclopenta[c]pyrrol-5-amine]",14,24,
"[2H]C([2H])(C1CCOC(C)(C)C1)N1C[C@H]2C[C@H](Nc3ccc(-c4cnccc4C(F)(F)F)nn3)C[C@H]2C1 (stereo partly drawn) [Compound 33, (3aR,5s,6aS)-2-((2,2-dimethyltetrahydro-2H-pyran-4-yl)methyl-d2)-N-(6-(4-(trifluoromethyl)pyridin-3-yl)pyridazin-3-yl)octahydrocyclopenta[c]pyrrol-5-amine]",,4.2,7
"[2H]C([2H])(C1CCOCC1)N1C[C@H]2C[C@H](Nc3nnc(-c4cnccc4C(F)(F)F)c4sccc34)C[C@H]2C1 [Compound 34, N-((3aR,5s,6aS)-2-((tetrahydro-2H-pyran-4-yl)methyl-d2)octahydrocyclopenta[c]pyrrol-5-yl)-7-(4-(trifluoromethyl)pyridin-3-yl)thieno[2,3-d]pyridazin-4-amine]",3,0.7,
"[2H]C([2H])(C1CCOCC1)N1C[C@H]2C[C@H](Nc3nnc(-c4cnccc4C(F)(F)F)c4ccsc34)C[C@H]2C1 [Compound 35, N-((3aR,5s,6aS)-2-((tetrahydro-2H-pyran-4-yl)methyl-d2)octahydrocyclopenta[c]pyrrol-5-yl)-4-(4-(trifluoromethyl)pyridin-3-yl)thieno[2,3-d]pyridazin-7-amine]",4,0.52,
"[2H]C([2H])(N1C[C@H]2C[C@H](Nc3ccc(-c4cnccc4C(F)(F)F)nn3)C[C@H]2C1)C(F)(F)C1CCOCC1 [Compound 36, (3aR,5s,6aS)-2-(2,2-difluoro-2-(tetrahydro-2H-pyran-4-yl)ethyl-1,1-d2)-N-(6-(4-(trifluoromethyl)pyridin-3-yl)pyridazin-3-yl)octahydrocyclopenta[c]pyrrol-5-amine]",6,39,
"[2H]C([2H])(N1C[C@H]2C[C@H](Nc3nnc(-c4cnccc4C(F)(F)F)cc3C)C[C@H]2C1)C(F)(F)C1CCOCC1 [Compound 37, (3aR,5s,6aS)-2-(2,2-difluoro-2-(tetrahydro-2H-pyran-4-yl)ethyl-1,1-d2)-N-(4-methyl-6-(4-(trifluoromethyl)pyridin-3-yl)pyridazin-3-yl)octahydrocyclopenta[c]pyrrol-5-amine]",4,21,
"[2H]C([2H])(C1CCOCC1)N1C[C@H]2C[C@H](Nc3ccc(-c4cccnc4C(F)F)nn3)C[C@H]2C1 [Compound 38, (3aR,5s,6aS)-N-(6-(2-(difluoromethyl)pyridin-3-yl)pyridazin-3-yl)-2-((tetrahydro-2H-pyran-4-yl)methyl-d2)octahydrocyclopenta[c]pyrrol-5-amine]",5,0.48,
"[2H]C([2H])(C1CCOCC1)N1C[C@H]2C[C@H](Nc3ccc(-c4cccnc4C(F)(F)F)nn3)C[C@H]2C1 [Compound 39, (3aR,5s,6aS)-2-((tetrahydro-2H-pyran-4-yl)methyl-d2)-N-(6-(2-(trifluoromethyl)pyridin-3-yl)pyridazin-3-yl)octahydrocyclopenta[c]pyrrol-5-amine]",23,0.8,
"FC(F)(F)c1ncccc1-c1ccc(N[C@H]2C[C@@H]3CN(CC4CCOCC4)C[C@@H]3C2)nn1 [Compound 40, (3aR,5s,6aS)-2-((tetrahydro-2H-pyran-4-yl)methyl)-N-(6-(2-(trifluoromethyl)pyridin-3-yl)pyridazin-3-yl)octahydrocyclopenta[c]pyrrol-5-amine]",3,0.74,
